NC(=O)c1ccc([N+](=O)[O-])cc1
solubility (mole fraction)
Details | 283.15 K | 288.15 K | 293.15 K | 298.15 K | 303.15 K | 308.15 K | 313.15 K | 318.15 K | 323.15 K | 328.15 K
in DMF | 0.037 | 0.0416 | 0.0492 | 0.0576 | 0.0691 | 0.0811 | 0.0945 | 0.109 | 0.123 | 0.139
in DMSO | – | – | 0.0372 | 0.0425 | 0.0504 | 0.0613 | 0.0747 | 0.0888 | 0.103 | 0.117
in NMP | 0.0418 | 0.0472 | 0.0549 | 0.0653 | 0.0775 | 0.0917 | 0.108 | 0.125 | 0.144 | 0.169
in acetonitrile | 0.000628 | 0.000806 | 0.000994 | 0.00126 | 0.00155 | 0.00195 | 0.00232 | 0.0028 | 0.00332 | 0.00396
in ethanol | 0.00157 | 0.00182 | 0.00231 | 0.00287 | 0.00351 | 0.00429 | 0.00513 | 0.00616 | 0.00735 | 0.00882
in ethyl acetate | 0.00203 | 0.00236 | 0.00286 | 0.00376 | 0.00471 | 0.00583 | 0.00706 | 0.0086 | 0.0103 | 0.0122
in ethylene glycol | 0.00356 | 0.00417 | 0.00496 | 0.006 | 0.00719 | 0.00873 | 0.0102 | 0.0119 | 0.0138 | 0.0164
in isobutanol | 0.000751 | 0.000942 | 0.00119 | 0.0015 | 0.00187 | 0.00233 | 0.00286 | 0.00342 | 0.00403 | 0.00467
in isopropanol | 0.00127 | 0.0015 | 0.00185 | 0.0023 | 0.00286 | 0.00341 | 0.00408 | 0.00492 | 0.00579 | 0.00677
in n-butanol | 0.000449 | 0.000554 | 0.000712 | 0.000907 | 0.00116 | 0.00144 | 0.00176 | 0.00213 | 0.00253 | 0.00301
in n-propanol | 0.00096 | 0.00119 | 0.00151 | 0.00189 | 0.00228 | 0.00276 | 0.00327 | 0.00381 | 0.00447 | 0.00533
in water | 0.000322 | 0.000395 | 0.000498 | 0.0006 | 0.000754 | 0.000924 | 0.00112 | 0.00137 | 0.00161 | 0.00186
